Reference: patent EP1247803A2, “Indolinone compounds suitable for modulation of protein kinases” (Sugen, Inc., priority 1996, dated 1998)

Key:
MET = MET biochemical kinase assay; set-up: species or system human; concentration or dose not given beside the values
Method in brief: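 In this format, tyrosine phosphorylation of plate-captured human MET is followed in vitro after compound addition in ATP/divalent-cation buffer, detected by anti-phosphotyrosine-HRP with TMB substrate.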

PDGF-R = PDGF-R (Homo sapiens, UniProt P09619); experiment: PDGF-R ELISA; type: cell-based
Description: A PDGF-R ELISA is described in International Patent Publication No. WO 96/40116, published December 19, 1996 by Tang et al.

EGFR = molecular target: T1, EGFR (Homo sapiens, UniProt P00533); experiment: EGFR ELISA assay (in vitro kinase activity, EGFR captured from A431 cell lysate); type: biochemical; set-up: concentration or dose not given beside the values
T1 construct: Add 7 ug A431 cell lysate per well (EGFR source); endogenous in cells; host or cells: A431
Method in brief: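 EGFR from A431 lysate was captured on anti-EGFR antibody-coated plates and preincubated with compounds for 30 min. Autophosphorylation ran 5 min with 3 uM ATP and 5 mM MnCl2 (final), stopped with 20 mM EDTA. Phosphotyrosine was detected by anti-pTyr ELISA with ABTS/H2O2, read at 410 nm.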

T1 sequence (P00533 25-1210): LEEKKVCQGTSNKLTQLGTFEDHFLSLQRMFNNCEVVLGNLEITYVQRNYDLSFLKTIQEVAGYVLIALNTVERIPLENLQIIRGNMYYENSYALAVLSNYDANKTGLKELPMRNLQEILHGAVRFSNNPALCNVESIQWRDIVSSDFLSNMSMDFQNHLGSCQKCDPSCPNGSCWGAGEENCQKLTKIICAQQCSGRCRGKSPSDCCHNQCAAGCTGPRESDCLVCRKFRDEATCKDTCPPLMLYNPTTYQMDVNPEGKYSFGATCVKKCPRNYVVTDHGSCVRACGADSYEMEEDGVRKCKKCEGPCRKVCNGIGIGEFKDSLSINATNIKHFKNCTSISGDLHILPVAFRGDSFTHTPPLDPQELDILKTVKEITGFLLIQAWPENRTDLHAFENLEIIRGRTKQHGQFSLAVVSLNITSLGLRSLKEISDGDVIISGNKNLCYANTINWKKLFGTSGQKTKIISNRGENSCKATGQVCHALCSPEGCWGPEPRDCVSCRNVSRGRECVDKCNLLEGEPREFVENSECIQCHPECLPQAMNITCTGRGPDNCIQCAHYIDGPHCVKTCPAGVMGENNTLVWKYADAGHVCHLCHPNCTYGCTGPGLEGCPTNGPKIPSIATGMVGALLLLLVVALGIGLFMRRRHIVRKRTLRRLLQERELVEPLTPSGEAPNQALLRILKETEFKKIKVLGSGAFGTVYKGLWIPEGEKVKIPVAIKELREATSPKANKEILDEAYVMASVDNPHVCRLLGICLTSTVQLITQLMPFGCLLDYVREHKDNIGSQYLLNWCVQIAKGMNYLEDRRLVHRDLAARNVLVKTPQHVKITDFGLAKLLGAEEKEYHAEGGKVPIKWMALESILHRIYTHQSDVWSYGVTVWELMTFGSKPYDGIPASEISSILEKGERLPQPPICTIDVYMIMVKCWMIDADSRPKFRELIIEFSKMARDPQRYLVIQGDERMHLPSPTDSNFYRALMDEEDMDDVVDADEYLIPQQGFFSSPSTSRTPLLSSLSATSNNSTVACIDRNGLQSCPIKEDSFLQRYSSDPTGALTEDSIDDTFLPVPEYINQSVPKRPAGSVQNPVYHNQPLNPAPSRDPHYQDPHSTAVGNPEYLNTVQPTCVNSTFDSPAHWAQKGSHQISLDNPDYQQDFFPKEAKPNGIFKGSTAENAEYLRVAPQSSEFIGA
PDGF-R, sequence (P09619 33-1106, species assumed): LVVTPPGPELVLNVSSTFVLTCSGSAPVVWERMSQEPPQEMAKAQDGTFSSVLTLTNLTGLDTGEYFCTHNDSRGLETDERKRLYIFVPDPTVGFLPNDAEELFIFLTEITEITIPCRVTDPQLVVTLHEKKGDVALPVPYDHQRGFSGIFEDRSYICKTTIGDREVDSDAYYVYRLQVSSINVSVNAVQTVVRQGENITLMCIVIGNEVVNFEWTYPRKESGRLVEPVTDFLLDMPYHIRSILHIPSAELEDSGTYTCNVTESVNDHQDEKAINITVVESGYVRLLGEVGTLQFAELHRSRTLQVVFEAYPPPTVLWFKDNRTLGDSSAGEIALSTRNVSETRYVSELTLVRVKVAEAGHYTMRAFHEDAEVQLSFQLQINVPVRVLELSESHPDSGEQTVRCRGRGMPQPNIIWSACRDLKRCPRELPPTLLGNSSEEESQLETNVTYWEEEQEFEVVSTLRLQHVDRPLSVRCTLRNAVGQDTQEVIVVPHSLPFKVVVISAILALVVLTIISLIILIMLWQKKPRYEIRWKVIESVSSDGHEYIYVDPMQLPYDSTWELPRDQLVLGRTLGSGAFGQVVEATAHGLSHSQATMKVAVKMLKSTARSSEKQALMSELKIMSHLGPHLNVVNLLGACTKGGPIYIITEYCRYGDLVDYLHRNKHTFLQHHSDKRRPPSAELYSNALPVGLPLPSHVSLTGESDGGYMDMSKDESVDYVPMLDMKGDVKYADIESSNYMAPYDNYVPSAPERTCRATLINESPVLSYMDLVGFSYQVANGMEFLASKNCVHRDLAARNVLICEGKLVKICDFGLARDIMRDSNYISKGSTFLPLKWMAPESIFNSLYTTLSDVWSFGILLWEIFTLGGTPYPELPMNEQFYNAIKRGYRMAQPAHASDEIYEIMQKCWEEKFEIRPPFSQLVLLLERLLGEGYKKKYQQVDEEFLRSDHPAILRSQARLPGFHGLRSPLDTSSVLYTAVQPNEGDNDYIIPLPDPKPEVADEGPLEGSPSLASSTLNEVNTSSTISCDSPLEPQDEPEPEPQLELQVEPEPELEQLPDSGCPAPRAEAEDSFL

| Structure (SMILES) | Met Kinase % Inhibition (MET) | PDGF Kinase %Inhibition (PDGF-R) | Biochem EGFR %Inhibition (EGFR) |
| --- | --- | --- | --- |
| O=C1Nc2ccc(S(=O)(=O)N3CCOCC3)cc2C1=Cc1cccc(F)c1O [10734/F08] | 66.3% | -6.0% | -23.6% |
| CC(C)(C)c1ccc(C=C2C(=O)Nc3ccc(S(=O)(=O)Nc4ccc(C(F)(F)F)cc4)cc32)cc1 [10734/E10] | 27.9% | 29.8% | -5.0% |
| O=C1Nc2ccc(S(=O)(=O)N3CCOCC3)cc2C1=Cc1ccc(O)c(Br)c1 [10734/F09] | 93.9% | -17.4% | 3.1% |
| Cc1c(O)ccc(C=C2C(=O)Nc3ccc(CCCl)cc32)c1O [10718/G09] | 27.0% |  | -15.4% |
| O=C1Nc2c(Br)cc(Br)cc2C1=Cc1ccc(O)cc1 [10719/A07] | 68.1% |  | 15.5% |
| O=C1Nc2ccc(I)cc2C1=Cc1ccc(F)cc1Cl [10719/B09] | 23.5% |  | -17.7% |
| CCOc1cccc(C=C2C(=O)Nc3ccc(S(=O)(=O)N4CCOCC4)cc32)c1O [10734/F02] | 55.0% | 10.4% | 0.7% |
| O=C1Nc2ccc(I)cc2C1=Cc1ccc(O)c(O)c1 [10719/B03] | 85.8% |  | 59.5% |
| O=C1Nc2ccc(I)cc2C1=Cc1ccc(F)cc1C(F)(F)F [10719/B11] | 36.5% |  | -23.9% |
| O=C1Nc2ccc(S(=O)(=O)Nc3ccc(C(F)(F)F)cc3)cc2C1=Cc1ccc([N+](=O)[O-])cc1 [10734/E06] | 50.6% | 13.5% | 6.3% |
| COc1cc(OC)c(C=C2C(=O)Nc3c(Br)cc(Br)cc32)c(OC)c1 [10719/A06] | -7.0% |  | 18.2% |
| Cc1c(Br)ccc2c1C(=Cc1ccc(F)cc1Cl)C(=O)N2 [10719/C09] | 8.9% |  | -0.1% |
| O=C1Nc2c(Br)cc(Br)cc2C1=Cc1ccc(O)c(O)c1 [10719/A03] | 84.1% |  | 67.7% |
| CCOc1ccc(C=C2C(=O)Nc3ccc(I)cc32)cc1OC [10719/B02] | 47.0% |  | 29.0% |
| O=C1Nc2ccc(S(=O)(=O)N3CCOCC3)cc2C1=Cc1ccco1 [10718/F10] | 23.7% |  | -12.0% |
| CCOC(=O)c1c(C)[nH]c(C=C2C(=O)Nc3ccc(CCCl)cc32)c1C [10718/G02] | 67.7% |  | 49.2% |
| CCOC(=O)c1c(C)[nH]c(C=C2C(=O)Nc3ccc(S(=O)(=O)N4CCOCC4)cc32)c1C [10718/F02] | 66.7% |  | 17.8% |
| COc1cc(OC)c(C=C2C(=O)Nc3ccc(Br)c(C)c32)c(OC)c1 [10719/C06] | 18.4% |  | -14.3% |
| Cc1c(Br)ccc2c1C(=Cc1ccc(O)c(O)c1)C(=O)N2 [10719/C03] | 69.1% |  | 60.6% |
| O=C1Nc2ccc(I)cc2C1=Cc1c[nH]c2ccccc12 [10717/B06] | 89.5% |  | -30.8% |

| Structure (SMILES) | Met Kinase % Inhibition (MET) | PDGF Kinase %Inhibition (PDGF-R) | Biochem EGFR %Inhibition (EGFR) |
| --- | --- | --- | --- |
| O=C1Nc2c(Br)cc(Br)cc2C1=Cc1cccc([N+](=O)[O-])c1 [10719/A10] | 13.4% |  | 8.2% |
| CCOc1ccc(C=C2C(=O)Nc3ccc(Br)c(C)c32)cc1OC [10719/C02] | 41.3% |  | 10.2% |
| O=C1Nc2ccc(CCCl)cc2C1=Cc1ccc(Cl)c([N+](=O)[O-])c1 [10718/G08] | 17.5% |  | -8.3% |
| O=C1Nc2ccc(I)cc2C1=Cc1ccc(F)cc1 [10717/B05] | 87.4% |  | 31.7% |
| CCc1c(C)[nH]c(C=C2C(=O)Nc3ccc(Br)c(C)c32)c1C [10719/C05] | 35.5% |  | 27.4% |
| Cn1cccc1C=C1C(=O)Nc2ccc(I)cc21 [10717/B04] | 70.0% |  | 10.3% |
| CN(C)c1ccc(C=C2C(=O)Nc3c(Br)cc(Br)cc32)cc1 [10719/A08] | 75.5% |  | 47.3% |
| CCc1c(C)[nH]c(C=C2C(=O)Nc3ccc(I)cc32)c1C [10719/B05] | 33.6% |  | 35.9% |
| COc1cc(Br)c(O)c(C=C2C(=O)Nc3ccc(S(=O)(=O)N4CCOCC4)cc32)c1 [10718/F03] | 87.9% |  | 22.5% |
| Cc1c(Br)ccc2c1C(=Cc1ccc(O)cc1)C(=O)N2 [10719/C07] | 7.7% |  | 14.4% |
| CCOC(=O)c1cc(C=C2C(=O)Nc3ccc(CCCl)cc32)oc1C [10718/G06] | 61.0% |  | -18.7% |
| COc1ccc(C=C2C(=O)Nc3ccc(I)cc32)c(OC)c1 [10719/B04] | 38.4% |  | 29.9% |
| COc1cc(OC)c(C=C2C(=O)Nc3ccc(I)cc32)c(OC)c1 [10719/B06] | 22.5% |  | -0.5% |
| COc1ccc(C=C2C(=O)Nc3c(Br)cc(Br)cc32)c(OC)c1 [10719/A04] | 22.9% |  | 43.7% |
| CCOC(=O)CCc1c(C(=O)OCC)[nH]c(C=C2C(=O)Nc3ccc(CCCl)cc32)c1CC(=O)OCC [10718/G05] | 60.3% |  | 2.8% |
| CN(C)c1ccc(C=C2C(=O)Nc3ccc(I)cc32)cc1 [10719/B08] | 33.2% |  | 42.3% |
| COc1ccc(C=C2C(=O)Nc3ccc(Br)c(C)c32)c(OC)c1 [10719/C04] | 14.7% |  | 14.4% |
| O=C1Nc2c(Br)cc(Br)cc2C1=Cc1ccc(F)cc1C(F)(F)F [10719/A11] | 34.9% |  | 10.5% |
| O=C1Nc2ccc(S(=O)(=O)N3CCOCC3)cc2C1=Cc1ccc2ccccc2c1O [10718/F04] | 78.1% |  | 1.2% |
| O=C1Nc2ccc(I)cc2C1=Cc1ccc(O)cc1 [10719/B07] | 52.2% |  | 23.7% |

| Structure (SMILES) | Met Kinase % Inhibition (MET) | PDGF Kinase %Inhibition (PDGF-R) | Biochem EGFR %Inhibition (EGFR) |
| --- | --- | --- | --- |
| CCOC(=O)CCc1c(C(=O)OCC)[nH]c(C=C2C(=O)Nc3ccc(S(=O)(=O)N4CCOCC4)cc32)c1CC(=O)OCC [10718/F05] | 53.7% |  | -4.9% |
| O=C1Nc2ccc(S(=O)(=O)N3CCOCC3)cc2C1=Cc1ccc(Cl)c([N+](=O)[O-])c1 [10718/F08] | 28.4% |  | -8.7% |
| Cc1c(O)ccc(C=C2C(=O)Nc3ccc(S(=O)(=O)N4CCOCC4)cc32)c1O [10718/F09] | 52.7% |  | -9.5% |
| Cc1c(Br)ccc2c1C(=Cc1ccc(N(C)C)cc1)C(=O)N2 [10719/C08] | 57.5% |  | -10.2% |
| COC(=O)c1[nH]c(C)c(C=C2C(=O)Nc3ccc(S(=O)(=O)N4CCOCC4)cc32)c1C(=O)OC [10718/F07] | 67.9% |  | -6.3% |
| O=C1Nc2ccc(CCCl)cc2C1=Cc1ccco1 [10718/G10] | 10.8% |  | -7.5% |
| CCOc1ccccc1C=C1C(=O)Nc2ccc(I)cc21 [10717/B02] | 87.5% |  | 31.7% |
| COc1cc(Br)c(O)c(C=C2C(=O)Nc3ccc(CCCl)cc32)c1 [10718/G03] | 77.9% |  | 57.3% |
| CCOc1ccc(C=C2C(=O)Nc3c(Br)cc(Br)cc32)cc1OC [10719/A02] | 40.9% |  | 43.0% |
| O=C1Nc2ccc(S(=O)(=O)N3CCOCC3)cc2C1=Cc1ccc([N+](=O)[O-])o1 [10718/F11] | 31.3% |  | -3.9% |
| O=C1Nc2c(Br)cc(Br)cc2C1=Cc1ccc(F)cc1Cl [10719/A09] | 47.0% |  | 2.2% |
| O=C1Nc2ccc(I)cc2C1=Cc1cccc([N+](=O)[O-])c1 [10719/B10] | 53.4% |  | -1.2% |
| CCOC(=O)c1cc(C=C2C(=O)Nc3ccc(S(=O)(=O)N4CCOCC4)cc32)oc1C [10718/F06] | 42.5% |  | -9.1% |
| COC(=O)c1[nH]c(C)c(C=C2C(=O)Nc3ccc(CCCl)cc32)c1C(=O)OC [10718/G07] | 52.0% |  | -21.3% |
| O=C1Nc2ccc(CCCl)cc2C1=Cc1ccc([N+](=O)[O-])o1 [10718/G11] | 3.0% |  | -4.9% |
| O=C1Nc2ccc(CCCl)cc2C1=Cc1ccc2ccccc2c1O [10718/G04] | 78.1% |  | 15.8% |
| CCc1c(C)[nH]c(C=C2C(=O)Nc3c(Br)cc(Br)cc32)c1C [10719/A05] | 39.6% |  | 23.1% |
| O=C1Nc2ccc(I)cc2C1=Cc1cccs1 [10717/B03] | 90.5% |  | 7.3% |
